Laboratory results published in patent US20250092065A1, “2-(INDAZOL-5-YL)-6-(PIPERIDIN-4-YL)-1,7-NAPHTHYRIDINE DERIVATIVES AND RELATED COMPOUNDS AS MODULATORS FOR SPLICING NUCLEIC ACIDS AND FOR THE TREATMENT OF PROLIFERATIVE DISEASES” (REMIX THERAPEUTICS INC., priority 2022, published 2025).
Where two headings read alike, the source gives them in different places.

Tests used:
MYB = assay: HiBiT protein abundance assay, MYB (K562 HiBiT knock-in); type: cell-based, human; settings: HiBiT knock-in K562 cells, 24 hours, top dose 10 μM
Experimental: (§1) Compounds described herein were used to screen for effects on quantitative protein abundance using a HiBit assay system (Promega). Quantitative protein abundance was determined by measuring the protein levels of HiBit-tagged protein targets expressed in cell culture via luminescence using the Nano-Glo HiBiT Lytic Detection System, which uses a split complementation assay format to reconstitute NanoBiT enzyme to generate a luminescent signal. A protein abundance assay was developed such that endogenous protein targets could be modified with the HiBiT peptide tag and their abundance could be assessed after compound treatment. Briefly, K562 cell lines containing a HiBiT-modification were treated with various compounds described herein (e.g., compounds of Formulas (I), or (II)). After treatment for 24 hours, the protein abundance of a specific target was determined by measuring luminescence.
(§2) Cells were maintained in IMIDM with 10% FBS. Before the assay, cells were diluted with […] growth media (IMIDM+[…] media) and were seeded in a 384-well plate at a density of 10000 cells/well (for each cell line listed in Table 6). Each compound was prepared as a 10-point 3-fold serial dilution in DMSO with the top dose at a final concentration of 10 μM in the well. Unmodified K562 cells were added at the previously specified density with DMSO to serve as an assay baseline and positive control (PC) and DMSO only with the respective modified cell lines was added to the negative control (NC) columns. Final DMSO concentration was kept at or below 0.25%. Treated cell plates were placed in an incubator at 37° C. with […] for 24 hours. After 24 hours, 25 μL of Complete HiBit Lytic reagent was added to each well at room temperature (e.g. one plate requiring 10 mL Lytic Buffer, 100 μL LgBiT Protein, 200 μL Lytic Substrate), shaken for 5 minutes at 600 RPM, then left to sit for 10 minutes for signal to stabilize before reading on a Spark Cyto plate reader (Tecan) with a 500 ms measurement time.
(§3) To determine compound effects on protein abundance of each target in Table 6, the percent response for each respective cell line was calculated at each compound concentration as follows:
(§4) % response=100*(S−PC)(NC−PC)
(§5) For the normalized response at each concentration, a four-parameter logistical regression was fit to the data and the response was interpolated at the […] to determine a concentration for protein abundance at 50% (IC50) the untreated control.

Target C = assay: HiBiT protein abundance assay, Target C (K562 HiBiT knock-in); type: cell-based, human; settings: HiBiT knock-in K562 cells, 24 hours, top dose 10 μM
Experimental: as §2, §3, §4, §5

K562 cells = assay: Cell Titer Glo 2.0 cell viability (toxicity) assay, K562; settings: 500 cells/well, 72 hours
HTT mRNA = assay: RT-qPCR splicing assay, HTT mRNA canonical (CJ) and alternative (AJ) junction; type: cell-based, human; settings: Homo sapiens; for AC50: HTT alternative junction mRNA, read-out: HTT AJ (increase in AJ mRNA, AC50)
Experimental: (§6) Compounds described herein were used to modulate RNA transcript abundance in cells. The expression of a target mRNA was measured by detecting the formation of an exon-exon junction in the canonical transcript (CJ). A compound mediated exon-inclusion event was detected by observing an increase in formation of a new junction with an alternative exon (AJ). Real-time qPCR assays were used to detect these splicing switches and interrogate the potency of various compounds towards different target genes. A high-throughput real time quantitative PCR (RT-qPCR) assay was developed to measure these two isoforms of the mRNA (CJ and AJ) for exemplary genes, such as HTT, SMN2, and MYB, together with a control housekeeping gene, GAPDH or GUSB or PPIA, used for normalization. Briefly, the A673 or K562 cell line was treated with various compounds described herein (e.g., compounds of Formula (I)). After treatment, the levels of the HTT, MYB, or SMN2 mRNA targets were determined from each sample of cell lysate by cDNA synthesis followed by qPCR.
(§7) The A673 cell line was cultured in DMEM with 10% FBS. Cells were diluted with full growth media and plated in a 96-well plate (15,000 cells in 100 ul media per well). The plate was incubated at 37° C. with 5% CO2 for 24 hours to allow cells to adhere. An 11-point 3-fold serial dilution of the compounds was made in DMSO then diluted in media in an intermediate plate. Compounds were transferred from the intermediate plate to the cell plate with the top dose at a final concentration of 10 uM in the well. Final DMSO concentration was kept at or below 0.25%. The cell plate was returned to the incubator at 37° C. with 5% CO2 for an additional 24 hours.
(§8) The K562 cell line was cultured in IMDM with 10% FBS. For K562, cells were diluted with full growth media and plated in either a 96-well plate (50,000 cells in 50 uL media per well) or a 384-well plate (8,000-40,000 cells in 45 uL media per well). An 11-point 3-fold serial dilution of the compounds were made in DMSO then diluted in media in an intermediate plate. Compound was transferred from the intermediate plate to the cell plate with the top dose at a final concentration of 10 uM in the well. Final DMSO concentration was kept at or below 0.25%. Final volume was 100 uL for 96-well plate and 50 uL for 384-well plate. The cell plate was then placed in an incubator at 37° C. with 5% CO2 for 24 hours.
(§9) The cells were then gently washed with 50 uL-100 uL cold PBS before proceeding to addition of lysis buffer. 30 uL-50 μL of room temperature lysis buffer with DNAse I (and optionally RNAsin) was added to each well. Cells were shaken/mixed thoroughly at room temperature for 5-10 minutes for lysis to take place and then 3 uL-5 μL of room temperature stop solution was added and wells were shaken/mixed again. After 2-5 minutes, the cell lysate plate was transferred to ice for RT-qPCR reaction setup. The lysates could also be frozen at −80° C. for later use.
(§10) In some cases, a direct lysis buffer was used. An appropriate volume of 3× lysis buffer (10 mM Tris, 150 mM NaCl, 1.5%-2.5% Igepal and 0.1-1 U/uL RNAsin, pH 7.4) was directly added to either K562 or A673 cells in media and mixed by pipetting 3 times. The plates were then incubated at room temperature with shaking/rocking for 20-50 minutes to allow for lysis to take place. After this time, the cell lysate plate was transferred to ice to set up for the RT-qPCR reactions. The lysates could also be frozen at −80° C. for later use.
(§11) To set up 10 uL RT-qPCR reactions, cell lysates were transferred to 384-well qPCR plates containing the master mix according to the table below. The plates were sealed, gently vortexed, and spun down before the run. The volumes were adjusted accordingly in some instances where the reaction was carried in 20 μL. The table below summarizes the components of the RT-qPCR reactions:
(§12) The RT-qPCR reaction was performed using a QuantStudio (ThermoFisher) under the following fast cycling conditions. […]

MYB mRNA = assay: RT-qPCR splicing assay, MYB mRNA canonical (CJ) and alternative (AJ) junction; type: cell-based, human; settings: Homo sapiens; for AC50: MYB alternative junction mRNA, read-out: MYB AJ (increase in AJ mRNA, AC50)
Experimental: as §6, §7, §8, §9, §10, §11, §12

HTT = assay: HiBiT protein abundance assay, HTT (K562 HiBiT knock-in); type: cell-based, human; settings: HiBiT knock-in K562 cells, 24 hours, top dose 10 μM
Experimental: as §1, §2, §3, §4, §5

SMN2 mRNA = assay: RT-qPCR splicing assay, SMN2 mRNA; type: cell-based, human; settings: Homo sapiens, canonical junction qPCR panel, Table 4; read-out: SMN2 IC50 (decrease in CJ mRNA levels)
Experimental: as §6, §7, §8, §9, §10, §11, §12

[1] = HTT canonical junction mRNA, RT-qPCR, read-out: HTT CJ (decrease in CJ mRNA levels, IC50)
[2] = canonical junction qPCR panel, Table 4, read-out: HTT IC50 (decrease in CJ mRNA levels)
[3] = MYB canonical junction mRNA, RT-qPCR, read-out: MYB CJ (decrease in CJ mRNA levels, IC50)
[4] = canonical junction qPCR panel, Table 4, read-out: MYB IC50 (decrease in CJ mRNA levels)

SMILES	IC50 (MYB)	IC50 (Target C)	Effect of Exemplary Compounds on Cell Viability, K562 (K562 cells)	AC50 (HTT mRNA; RT-qPCR)	IC50 (HTT mRNA; [1])	IC50 (HTT mRNA; [2])	AC50 (MYB mRNA; RT-qPCR)	IC50 (MYB mRNA; [3])	IC50 (MYB mRNA; [4])	IC50 (HTT)	IC50 (SMN2 mRNA)
Cn1cc2cc(-c3ccc4nc(C5CCNCC5)ccc4n3)c(O)cc2n1 [Compound 100]	< 100 nM	< 100 nM	B (B represents 100-1000 nM)	100 to 1000 nM	< 100 nM	< 100 nM	1000 to 10000 nM	< 100 nM	< 100 nM	< 100 nM	< 100 nM
Cc1c(O)c(-c2ccc3nc(C4CCNCC4)ccc3n2)cc2cn(C)nc12 [Compound 101]	< 100 nM	< 100 nM	A (A represents <100 nM)	< 100 nM	< 100 nM	< 100 nM	< 100 nM	< 100 nM	< 100 nM	< 100 nM	< 100 nM
Cn1cc2cc(-c3ccc4nc(C5CCNCC5)ccc4n3)c(O)c(F)c2n1 [Compound 102]	< 100 nM	< 100 nM	A (A represents <100 nM)	< 100 nM	< 100 nM	< 100 nM	< 100 nM	< 100 nM	< 100 nM	< 100 nM	< 100 nM
Cn1cc2c(O)c(-c3cc4ccc(C5CCNCC5)nc4cn3)ccc2n1 [Compound 106]	1000 to 10000 nM	1000 to 10000 nM	B (B represents 100-1000 nM)	1000 to 10000 nM	1000 to 10000 nM	1000 to 10000 nM	100 to 1000 nM	1000 to 10000 nM	1000 to 10000 nM	1000 to 10000 nM	100 to 1000 nM
Cn1cc2cc(-c3ncc4nc(C5CCNCC5)ccc4n3)c(O)cc2n1 [Compound 107]	100 to 1000 nM	100 to 1000 nM	B (B represents 100-1000 nM)	100 to 1000 nM	100 to 1000 nM	100 to 1000 nM	100 to 1000 nM	100 to 1000 nM	100 to 1000 nM	100 to 1000 nM	< 100 nM
Cn1cc2c(O)c(-c3ncc4nc(C5CCNCC5)ccc4n3)ccc2n1 [Compound 108]	100 to 1000 nM	100 to 1000 nM	B (B represents 100-1000 nM)	1000 to 10000 nM	1000 to 10000 nM	1000 to 10000 nM	1000 to 10000 nM	1000 to 10000 nM	1000 to 10000 nM	100 to 1000 nM	< 100 nM
Cn1cc2cc(-c3ccc4cc(C5CCNCC5)ccc4n3)c(O)cc2n1 [Compound 109]	< 100 nM	< 100 nM	B (B represents 100-1000 nM)	100 to 1000 nM	< 100 nM	< 100 nM	100 to 1000 nM	< 100 nM	< 100 nM	< 100 nM	< 100 nM
Cn1cc2cc(-c3ccc4c(F)c(C5CCNCC5)ccc4n3)c(O)cc2n1 [Compound 115]	< 100 nM	100 to 1000 nM	B (B represents 100-1000 nM)	1000 to 10000 nM	1000 to 10000 nM	1000 to 10000 nM	100 to 1000 nM	100 to 1000 nM	100 to 1000 nM	100 to 1000 nM	< 100 nM
CN1CCN(c2ccc3nc(-c4cc5cn(C)nc5cc4O)ccc3n2)CC1 [Compound 116]	1000 to 10000 nM	1000 to 10000 nM	C (C represents 1000-9999 nM)	1000 to 10000 nM	1000 to 10000 nM	1000 to 10000 nM	1000 to 10000 nM	100 to 1000 nM	100 to 1000 nM	1000 to 10000 nM	< 100 nM
CC1CN(c2ccc3nc(-c4cc5cn(C)nc5cc4O)ccc3n2)CCN1 (stereo not drawn) [Compound 117]	100 to 1000 nM	1000 to 10000 nM	B (B represents 100-1000 nM)	1000 to 10000 nM	1000 to 10000 nM	1000 to 10000 nM	100 to 1000 nM	100 to 1000 nM	100 to 1000 nM	100 to 1000 nM	< 100 nM
CC1CN(c2ccc3nc(-c4cc5cn(C)nc5cc4O)ccc3n2)CCN1C (stereo not drawn) [Compound 118]	100 to 1000 nM	> 10000 nM	C (C represents 1000-9999 nM)	1000 to 10000 nM	1000 to 10000 nM	1000 to 10000 nM	1000 to 10000 nM	100 to 1000 nM	100 to 1000 nM	1000 to 10000 nM	< 100 nM
CCC1CN(c2ccc3nc(-c4cc5cn(C)nc5cc4O)ccc3n2)CCN1 (stereo not drawn) [Compound 119]	100 to 1000 nM	100 to 1000 nM	B (B represents 100-1000 nM)	1000 to 10000 nM	100 to 1000 nM	100 to 1000 nM	100 to 1000 nM	100 to 1000 nM	100 to 1000 nM	100 to 1000 nM	< 100 nM
